The source of these data is US20100190788A1, “Amide derivatives as kinase inhitors” (priority 2005, published 2010).

Where a name gives a salt, the structure may show the parent alone.

The target of the first assay is T1, human ROCKα/ROCKII mix (Homo sapiens, UniProt O75116).
T1 construct: purchased Upstate Biotechnology 14-451
T1 sequence (O75116 whole entry): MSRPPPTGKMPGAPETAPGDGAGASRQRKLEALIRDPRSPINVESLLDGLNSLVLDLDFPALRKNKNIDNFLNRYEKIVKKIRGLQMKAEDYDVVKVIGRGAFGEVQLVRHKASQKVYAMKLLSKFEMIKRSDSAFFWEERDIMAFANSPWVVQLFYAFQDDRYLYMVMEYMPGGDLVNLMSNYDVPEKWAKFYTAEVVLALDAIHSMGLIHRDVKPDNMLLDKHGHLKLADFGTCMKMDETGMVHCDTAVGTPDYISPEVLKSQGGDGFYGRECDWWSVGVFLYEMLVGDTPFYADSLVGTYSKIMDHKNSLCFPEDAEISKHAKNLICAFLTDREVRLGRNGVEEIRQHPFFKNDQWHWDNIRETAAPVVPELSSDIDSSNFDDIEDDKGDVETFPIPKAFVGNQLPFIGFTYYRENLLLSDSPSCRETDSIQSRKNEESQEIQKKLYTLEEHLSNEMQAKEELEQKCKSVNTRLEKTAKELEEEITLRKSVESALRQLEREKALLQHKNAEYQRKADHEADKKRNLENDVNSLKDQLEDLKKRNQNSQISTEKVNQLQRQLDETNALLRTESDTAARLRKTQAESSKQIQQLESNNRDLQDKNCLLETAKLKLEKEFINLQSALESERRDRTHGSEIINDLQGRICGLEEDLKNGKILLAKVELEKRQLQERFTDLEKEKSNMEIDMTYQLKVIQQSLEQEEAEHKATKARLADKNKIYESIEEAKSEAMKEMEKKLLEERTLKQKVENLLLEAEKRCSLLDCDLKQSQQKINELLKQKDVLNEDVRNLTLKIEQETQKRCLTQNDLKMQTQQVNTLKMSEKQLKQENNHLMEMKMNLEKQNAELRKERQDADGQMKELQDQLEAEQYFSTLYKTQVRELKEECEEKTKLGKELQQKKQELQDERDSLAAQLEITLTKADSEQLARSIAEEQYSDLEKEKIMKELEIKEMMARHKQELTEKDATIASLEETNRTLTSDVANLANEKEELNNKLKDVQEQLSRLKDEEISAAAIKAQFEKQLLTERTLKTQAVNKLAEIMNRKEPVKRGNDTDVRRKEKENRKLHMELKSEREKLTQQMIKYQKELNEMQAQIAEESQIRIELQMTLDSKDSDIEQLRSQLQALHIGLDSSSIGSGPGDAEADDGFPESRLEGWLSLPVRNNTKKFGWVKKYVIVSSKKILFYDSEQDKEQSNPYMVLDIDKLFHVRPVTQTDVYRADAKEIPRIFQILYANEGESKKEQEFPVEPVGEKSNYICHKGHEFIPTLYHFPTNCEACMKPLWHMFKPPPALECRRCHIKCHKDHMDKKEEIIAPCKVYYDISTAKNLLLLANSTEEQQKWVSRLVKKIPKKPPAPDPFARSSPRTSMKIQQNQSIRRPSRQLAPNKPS
The assay can be described thus: ROCK inhibition, fluorescence polarization (FP) assay with ROCK IMAP Kit. Conditions: Table 1, compounds of Formula IV20. It is filed as biochemical. How it is done: The compounds were tested for inhibition of human ROCKα/ROCKII mix.
The inhibition assays were performed with a fluorescence polarization (FP) assay using the commercially available ROCK IMAP Kit from Molecular Devices (Product ID. No. R8093), essentially in accordance with the protocol supplied by the manufacturer. […] The enzyme mix ROCKα/ROCKII was obtained from Upstate Biotechnology (Product ID No 14-451).
In summary, all compounds were screened in the wells of a 384 well plate for enzymatic inhibition with concentrations varying from 100 μM to 0.3 nM using a stepwise 3 (or 2)-fold dilution.
To perform the assay, 1 μl of a solution of the compound to be tested in DMSO (at each concentration) was added to 2 μl of a solution of the enzyme in 10 mM Tris-HCl, 10 mM MgCl2, 0.1% BSA, 0.05% NaN3, pH 7.2. The final concentration of the enzyme was 2.6 nM.
After incubating for 30 minutes at RT, 2 μl of a mixture of ATP and the protein substrate in 10 mM Tris-HCl, 10 mM MgCl2, 0.1% BSA, 0.05% NaN3, pH 7.2 was added. The final concentration of the ATP was 10 μM and final concentration of protein substrate was 0.2 μM.
After incubating for 60 minutes at RT, 12 μl of the IMAP Binding Solution (mix of the IMAP Binding Buffer A (1×) and the IMAP Binding Reagent (from the ROCK IMAP kit)) was added.
The mixture thus obtained (total volume: 17 μl) was incubated for 60 minutes at RT, upon which the fluorescence polarization was measured using an automated plate reader (Perkin Elmer, Model Envision 2100-0010 HTS) with FP filters: excitation filter FITC FP 480 and emission filters FITC FP P-pol 535 and FITC FP S-pol 535 (Perkin-Elmer). The results were fitted to a curve using the XL-Fit algorithm and IC50 values were calculated for each fitted curve, again using the XL-Fit algorithm.
`CN(Cc1ccccc1)C(=O)C(N)c1ccc(C(=O)Nc2ccncc2)cc1` (stereo not shown) [Compound 3, 4-[amino-(benzyl-methyl-carbamoyl)-methyl]-N-pyridin-4-yl-benzamide] registered an IC50 of less than 0.5 µM. The same measure, in the same setting: with `NC(C(=O)NC1CCN(Cc2ccccc2)CC1)c1ccc(C(=O)Nc2ccncc2)cc1` (stereo not shown) [Compound 51, 4-{amino-[1-benzyl-piperidin-4-ylcarbamoyl]-methyl}-N-pyridin-4-yl-benzamide] the figure was 0.5 to 5 µM. The same measure, in the same setting: with `CC(NC(=O)C(N)c1ccc(C(=O)Nc2ccncc2)cc1)c1ccccc1` (stereo not shown) [Compound 2, 4-[amino-(1-phenyl-ethylcarbamoyl)-methyl]-N-pyridin-4-yl-benzamide] the figure was less than 0.5 µM. The compound `NC(C(=O)NC1Cc2ccccc2C1)c1ccc(C(=O)Nc2ccncc2)cc1` (stereo not shown) [Compound 15, 4-[amino-(indan-2-ylcarbamoyl)-methyl]-N-pyridin-4-yl-benzamide] gave an IC50 of less than 0.5 µM. Consider `CCNC(=O)C(N)c1ccc(C(=O)Nc2ccncc2)cc1` (stereo not shown) [Compound 22, 4-(amino-ethylcarbamoyl-methyl)-N-pyridin-4-yl-benzamide], for which the IC50 is 0.5 to 5 µM. On the same count and under the same terms, with `NC(C(=O)NCc1ccccc1Cl)c1ccc(C(=O)Nc2ccncc2)cc1` (stereo not shown) [Compound 6, 4-[amino-(2-chloro-benzylcarbamoyl)-methyl]-N-pyridin-4-yl-benzamide] the figure was less than 0.5 µM; with `CCC(C)(C)NC(=O)C(N)c1ccc(C(=O)Nc2ccncc2)cc1` (stereo not shown) [Compound 24, 4-[amino-(1,1-dimethyl-propylcarbamoyl)-methyl]-N-pyridin-4-yl-benzamide], 0.5 to 5 µM.

Regarding `NC(C(=O)N1CCCC1c1cccc(F)c1)c1ccc(C(=O)Nc2ccncc2)cc1` (stereo not shown) [Compound 83, 4-{1-amino-2-[2-(3-fluoro-phenyl)-pyrrolidin-1-yl]-2-oxo-ethyl}-N-pyridin-4-yl-benzamide], the IC50 is less than 0.5 µM. The same measure, in the same setting: with `CC[C@H](NC(=O)C(N)c1ccc(C(=O)Nc2ccncc2)cc1)c1ccccc1` (stereo partly drawn) [Compound 5, 4-[amino-(1-(S)-phenyl-propylcarbamoyl)-methyl]-N-pyridin-4-yl-benzamide] the figure was 0.5 to 5 µM. The same measure, in the same setting: with `NC(C(=O)N1CCN(Cc2ccc(F)cc2)CC1)c1ccc(C(=O)Nc2ccncc2)cc1` (stereo not shown) [Compound 49, 4-{1-amino-2-[4-(4-fluoro-benzyl)-piperazin-1-yl]-2-oxo-ethyl}-N-pyridin-4-yl-benzamide] the figure was 0.5 to 5 µM; with `NC(C(=O)N1CCN(Cc2ccccc2F)CC1)c1ccc(C(=O)Nc2ccncc2)cc1` (stereo not shown) [Compound 48, 4-{1-amino-2-[4-(2-fluoro-benzyl)-piperazin-1-yl]-2-oxo-ethyl}-N-pyridin-4-yl-benzamide], 0.5 to 5 µM; with `Cc1ccc(CN2CCC(NC(=O)C(N)c3ccc(C(=O)Nc4ccncc4)cc3)CC2)s1` (stereo not shown) [Compound 53, 4-{amino-[1-(5-methyl-thiophen-2-ylmethyl)-piperidin-4-ylcarbamoyl]-methyl}-N-pyridin-4-yl-benzamide], 0.5 to 5 µM.

As to `COc1ccc(CN2CCN(C(=O)C(N)c3ccc(C(=O)Nc4ccncc4)cc3)CC2)cc1` (stereo not shown) [Compound 50, 4-{1-amino-2-[4-(4-methoxy-benzyl)-piperazin-1-yl]-2-oxo-ethyl}-N-pyridin-4-yl-benzamide], the IC50 was 0.5 to 5 µM.

Still in this assay, the particulars now being: Table 2, compounds of Formula V20.
On to `NC(CNS(=O)(=O)c1ccccc1F)c1ccc(C(=O)Nc2ccncc2)cc1` (stereo not shown) [Compound 66, 4-[1-amino-2-(2-fluoro-benzenesulfonylamino)-ethyl]-N-pyridin-4-yl-benzamide], for which the IC50 is less than 0.5 µM. For `NC(CNS(=O)(=O)c1ccc(-c2ccccc2)cc1)c1ccc(C(=O)Nc2ccncc2)cc1` (stereo not shown) [Compound 76], the IC50 was in the range of 0.5 to 5 µM. The same measure, in the same setting: the result for `CCCS(=O)(=O)NCC(N)c1ccc(C(=O)Nc2ccncc2)cc1` (stereo not shown) [Compound 57, 4-[1-amino-2-(propane-1-sulfonylamino)-ethyl]-N-pyridin-4-yl-benzamide] reads less than 0.5 µM; that for `Cc1nn(C)c(Cl)c1S(=O)(=O)NCC(N)c1ccc(C(=O)Nc2ccncc2)cc1` (stereo not shown) [Compound 80, 4-[1-amino-2-(5-chloro-1,3-dimethyl-1H-pyrazole-4-sulfonylamino)-ethyl]-N-pyridin-4-yl-benzamide], 0.5 to 5 µM.

The assay is the same for the next values; noted with them: Table 3, compounds of Formula III20.
`NC(CC(=O)N1CCCC1c1ccc(F)cc1)c1ccc(C(=O)Nc2ccncc2)cc1` (stereo not shown) [Compound 86, 4-{1-amino-3-[2-(4-fluoro-phenyl)-pyrrolidin-1-yl]-3-oxo-propyl}-N-pyridin-4-yl-benzamide]: the IC50 is less than 0.5 µM. In the case of `NC(CC(=O)N1CCOCC1)c1ccc(C(=O)Nc2ccncc2)cc1` (stereo not shown) [Compound 112, 4-(1-amino-3-morpholin-4-yl-3-oxo-propyl)-N-pyridin-4-yl-benzamide], the 50% inhibitory concentration (IC50) is less than 0.5 µM. Same read-out and setting: with `NC(CC(=O)N1CCCC1c1ccccc1)c1ccc(C(=O)Nc2ccncc2)cc1` (stereo not shown) [Compound 84, 4-[1-amino-3-oxo-3-(2-phenyl-pyrrolidin-1-yl)-propyl]-N-pyridin-4-yl-benzamide] the figure was less than 0.5 µM. Regarding `NC(CC(=O)N1Cc2ccccc2C1)c1ccc(C(=O)Nc2ccncc2)cc1` (stereo not shown) [Compound 105, 4-[1-amino-3-(1,3-dihydro-isoindol-2-yl)-3-oxo-propyl]-N-pyridin-4-yl-benzamide], the IC50 is less than 0.5 µM. On the same count and under the same terms, with `NC(CC(=O)N1CCCCC1c1ccc(Cl)cc1)c1ccc(C(=O)Nc2ccncc2)cc1` (stereo not shown) [Compound 94, 4-{1-amino-3-[2-(4-chloro-phenyl)-piperidin-1-yl]-3-oxo-propyl}-N-pyridin-4-yl-benzamide] the figure was less than 0.5 µM. Same read-out and setting: with `NC(CC(=O)N1CCCC1c1ccc(Cl)c(Cl)c1)c1ccc(C(=O)Nc2ccncc2)cc1` (stereo not shown) [Compound 91, 4-{1-amino-3-[2-(3,4-dichloro-phenyl)-pyrrolidin-1-yl]-3-oxo-propyl}-N-pyridin-4-yl-benzamide] the figure was less than 0.5 µM; with `COc1ccc(CN2CCN(C(=O)CC(N)c3ccc(C(=O)Nc4ccncc4)cc3)CC2)cc1` (stereo not shown) [Compound 121, 4-{1-Amino-3-[4-(4-methoxy-benzyl)-piperazin-1-yl]-3-oxo-propyl}-N-pyridin-4-yl-benzamide], 0.5 to 5 µM; with `CC1CC(C)CN(C(=O)CC(N)c2ccc(C(=O)Nc3ccncc3)cc2)C1` (stereo not shown) [Compound 108, 4-[1-amino-3-(3,5-dimethyl-piperidin-1-yl)-3-oxo-propyl]-N-pyridin-4-yl-benzamide], less than 0.5 µM.

The assay is the same for the next values; noted with them: Table 4, compounds 132 to 156.
`N[C@@H](C(=O)NCc1ccccc1)c1ccc(C(=O)Nc2ccncc2)cc1` [Compound 156, 4-((R)-Amino-benzylcarbamoyl-methyl)-N-pyridin-4-yl-benzamide dihydrochloric acid salt] returned an IC50 of 0.5 to 5 µM. As to `NC(c1ccc(C(=O)Nc2ccncc2)cc1)C1CCCN1S(=O)(=O)c1cccc(Cl)c1` (stereo not shown) [Compound 134, 4-{Amino-[1-(3-chloro-benzenesulfonyl)-pyrrolidin-2-yl]-methyl}-N-pyridin-4-yl-benzamide dihydrochloric acid salt], the IC50 was 0.5 to 5 µM. In the case of `COc1ccc(S(=O)(=O)N(C)CC(N)c2ccc(C(=O)Nc3ccncc3)cc2)cc1` (stereo not shown) [Compound 146, 4-{1-Amino-2-[(4-methoxy-benzenesulfonyl)-methyl-amino]-ethyl}-N-pyridin-4-yl-benzamide dihydrochloric acid salt], the IC50 is less than 0.5 µM.
